Test results taken from the supplement of paper PMC10307832.

Legend:
Assay in all cases: relative viability (nuclei count vs DMSO), 5 days (fraction); higher = more cells survive
[1] = compound: CN1CCC(CNc2ccc3ncc(-c4cccc(OC(F)(F)F)c4)n3n2)CC1 [SGI-1776] + Cc1nc(NC(=O)N2CCC[C@H]2C(N)=O)sc1-c1ccnc(C(C)(C)C(F)(F)F)c1 [Alpelisib] (partner 2 µM)
Procedure, shortened: (§1)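 Relative viability was taken as the ratio of nuclei in treated wells to nuclei in vehicle wells. Lung cancer cell lines in 1536-well plates received compounds by pin tool one day after seeding, either one drug alone or a fixed anchor-drug dose plus five library-drug doses (not always all listed) in √10 steps. Nuclei were counted on 4× images after 5 days of treatment, and values are medians of duplicate plates.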

[2] = compound: Nc1ccccc1NC(=O)c1ccc(CNC(=O)OCc2cccnc2)cc1 [Entinostat] + O=C(CCCCCCC(=O)Nc1ccccc1)NO [Vorinostat] (partner 1 µM)
Procedure, shortened: as §1

[3] = compound: CN1CCC(CNc2ccc3ncc(-c4cccc(OC(F)(F)F)c4)n3n2)CC1 [SGI-1776] + Nc1ncn([C@H]2C[C@H](O)[C@@H](CO)O2)c(=O)n1 [Decitabine] (partner 2 µM)
Procedure, shortened: as §1

[4] = compound: Nc1ccccc1NC(=O)c1ccc(CNC(=O)OCc2cccnc2)cc1 [Entinostat] + CC(=O)c1c(C)c2cnc(Nc3ccc(N4CCNCC4)cn3)nc2n(C2CCCC2)c1=O [Palbociclib] (partner 0.5 µM)
Procedure, shortened: as §1

Cell Line	relative viability ([1]; first compound 0.08 µM)	relative viability ([1]; first compound 0.8 µM)	relative viability ([1]; first compound 2.53 µM)	relative viability ([1]; first compound 8 µM)	relative viability ([2]; first compound 0.02 µM)	relative viability ([2]; first compound 0.06325 µM)	relative viability ([2]; first compound 0.2 µM)	relative viability ([2]; first compound 0.6325 µM)	relative viability ([2]; first compound 2 µM)	relative viability ([3]; first compound 0.08 µM)	relative viability ([3]; first compound 0.8 µM)	relative viability ([3]; first compound 2.53 µM)	relative viability ([3]; first compound 8 µM)	relative viability ([4]; first compound 0.02 µM)	relative viability ([4]; first compound 0.06325 µM)	relative viability ([4]; first compound 0.2 µM)	relative viability ([4]; first compound 0.6325 µM)	relative viability ([4]; first compound 2 µM)
NCI-H1437	0.867	0.961	0.99	0.634	0.612	0.466	0.383	0.261	0.254	0.553	0.598	0.645	0.495	0.236	0.182	0.204	0.178	0.122
EKVX	0.885	0.933	0.869	0.72	0.801	0.654	0.65	0.467	0.42	0.291	0.397	0.355	0.305	0.467	0.434	0.343	0.326	0.242
NCI-H460	0.488	0.481	0.433	0.121	0.751	0.567	0.245	0.052	0.0296	0.476	0.61	0.49	0.494	0.112	0.0634	0.0456	0.0231	0.0171
NCI-H1993	0.631	0.684	0.687	0.594	0.841	0.661	0.73	0.453	0.351	0.56	0.664	0.522	0.503	0.653	0.667	0.725	0.642	0.273
HCC-78	0.37	0.333	0.315	0.248	0.44	0.435	0.441	0.33	0.281	0.714	0.739	0.636	0.657	0.523	0.462	0.491	0.468	0.531
NCI-H2087	1.1	1.06	1.18	0.997	1.07	0.407	0.697	0.451	0.157	0.331	0.26	0.278	0.215	0.252	0.209	0.174	0.0887	0.0971
H3255	0.65	0.747	0.611	0.38	0.902	0.303	0.65	0.483	0.37	0.609	0.582	0.654	0.487	0.339	0.345	0.348	0.301	0.27
NCI-H2126	0.735	0.733	0.751	0.676	0.74	0.883	0.733	0.314	0.317	0.575	0.576	0.559	0.54	0.316	0.317	0.351	0.321	0.334
LCLC-103H	0.996	0.862	0.939	0.924	0.804	0.806	0.703	0.482	0.447	0.738	0.656	0.762	0.69	0.526	0.438	0.406	0.429	0.427
RERF-LC-KJ	0.805	0.844	0.926	0.666	0.68	0.665	0.578	0.381	0.25	0.67	0.652	0.566	0.363	1.06	1.09	1	0.584	0.278
EBC-1	0.888	0.78	0.903	0.434														
HCC-15	0.912	0.836	0.895	0.71	0.81	0.807	0.636	0.51	0.266	0.593	0.692	0.593	0.414	0.734	0.674	0.572	0.454	0.273
NCI-H1650					0.794	0.747	0.571	0.438	0.264	0.456	0.388	0.473	0.342	0.352	0.299	0.334	0.283	0.162
COR-L 105	1.13	1.05	1.03	0.759	0.993	0.986	0.851	0.541	0.356	0.75	0.705	0.737	0.544	0.376	0.406	0.38	0.43	0.355
NCI-H596	0.529	0.439	0.357	0.349	0.603	0.694	0.708	0.589	0.41	1.02	1.05	1.15	0.997					
LXF-289	1	1.06	1.03	1	0.784	0.784	0.731	0.526	0.381	0.384	0.366	0.369	0.326	0.577	0.606	0.575	0.509	0.514
NCI-H1703	0.367	0.312	0.299	0.165														
NCI-H2170	0.858	0.835	0.697	0.635	0.803	0.72	0.683	0.476	0.265	0.478	0.441	0.393	0.475	0.387	0.362	0.314	0.252	0.216
NCI-H522					0.794	0.944	0.863	0.741	0.428	0.632	0.595	0.728	0.562	1.01	1.15	1.13	1.01	0.97
LOU-NH91	0.783	0.691	0.707	0.533	0.971	0.909	0.872	0.718	0.56	0.853	0.811	0.799	0.705	0.466	0.581	0.532	0.531	0.508
